Experimental data: US20260265233A1, “BENZOTHIOPHENE DERIVATIVES AS RXFP1 AGONISTS” (BRISTOL-MYERS SQUIBB COMPANY, priority 2021, published 2026)

biological target: T1, human RXFP1 (Homo sapiens, UniProt Q9HBX9); assay: hRXFP1 HEK293 cAMP assay (HTRF); type: cell-based; details: HEK293 cells stably expressing human RXFP1; 30 min at rt; intracellular cAMP by HTRF
T1 construct: expressed in transfected cells
T1 sequence (Q9HBX9 1-757): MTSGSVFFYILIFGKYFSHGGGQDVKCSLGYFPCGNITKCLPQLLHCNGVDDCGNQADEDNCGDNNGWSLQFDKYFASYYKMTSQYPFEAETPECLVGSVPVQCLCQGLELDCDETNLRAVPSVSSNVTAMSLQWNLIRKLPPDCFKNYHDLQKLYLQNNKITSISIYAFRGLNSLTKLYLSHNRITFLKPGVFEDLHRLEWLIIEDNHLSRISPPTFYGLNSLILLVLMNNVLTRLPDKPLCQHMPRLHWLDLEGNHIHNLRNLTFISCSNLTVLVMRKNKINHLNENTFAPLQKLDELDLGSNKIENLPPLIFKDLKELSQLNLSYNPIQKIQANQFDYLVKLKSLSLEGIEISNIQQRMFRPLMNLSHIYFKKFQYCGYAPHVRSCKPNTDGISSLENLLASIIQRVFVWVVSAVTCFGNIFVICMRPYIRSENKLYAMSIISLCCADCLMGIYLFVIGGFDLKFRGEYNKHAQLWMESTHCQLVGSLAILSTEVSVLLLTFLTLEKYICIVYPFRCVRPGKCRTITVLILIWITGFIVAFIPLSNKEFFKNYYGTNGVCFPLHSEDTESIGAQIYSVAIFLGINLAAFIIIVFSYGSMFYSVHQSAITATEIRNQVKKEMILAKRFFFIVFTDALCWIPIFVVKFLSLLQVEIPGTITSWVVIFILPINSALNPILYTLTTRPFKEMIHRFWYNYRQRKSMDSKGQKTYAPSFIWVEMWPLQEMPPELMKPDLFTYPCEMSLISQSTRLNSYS
Procedure: RXFP1 Cyclic Adenosine Monophosphate (cAMP) Assays. Human embryonic kidney cells 293 (HEK293) cells and HEK293 cells stably expressing human RXFP1, were cultured in MEM medium supplemented with 10% qualified FBS, and 300 μg/ml hygromycin (Life Technologies). Cells were dissociated and suspended in assay buffer. The assay buffer was HBSS buffer (with calcium and magnesium) containing 20 mM HEPES, 0.05% BSA, and 0.5 mM IBMX. Cells (3000 cells per well, except 1500 cell per well for HEK293 cells stably expressing human RXFP1) were added to 384-well Proxiplates (Perkin-Elmer). Cells were immediately treated with test compounds in DMSO (2% final) at final concentrations in the range of 0.010 nM to 50 μM. Cells were incubated for 30 min at rt. The level of intracellular cAMP was determined using the HTRF HiRange cAMP assay reagent kit (Cisbio) according to manufacturer's instructions. Solutions of cryptate conjugated anti-cAMP and d2 fluorophore-labelled cAMP were made in a supplied lysis buffer separately. Upon completion of the reaction, the cells were lysed with equal volume of the d2-cAMP solution and anti-cAMP solution. After a 1 h rt incubation, time-resolved fluorescence intensity was measured using the Envision (Perkin-Elmer) at 400 nm excitation and dual emission at 590 nm and 665 nm. A calibration curve was constructed with an external cAMP standard at concentrations ranging from 2.7 μM to 0.1 pM by plotting the fluorescent intensity ratio from 665 nm emission to the intensity from the 590 nm emission against cAMP concentrations. The potency and activity of a compound to […] cAMP production was then determined by fitting to a 4-parametric logistic equation from a plot of cAMP level versus compound concentrations.
The examples disclosed below were tested in the human RXFP1 (hRXFP1) HEK293 cAMP assay described above and found to have agonist activity.

**Q.** COc1ccc(C2CCN(CC(N)=O)C2)cc1C(=O)Nc1c(C(=O)Nc2ccc(F)c(C(F)(F)F)c2)sc2cc(C(F)(F)F)ccc12 (centres unmarked) [Example 155, 3-{5-[1-(carbamoyl-methyl)pyrrolidin-3-yl]-2-methoxy-benzamido}-N-[4-fluoro-3-(trifluoromethyl)phenyl]-6-(trifluoromethyl)-1-benzothiophene-2-carboxamide] was tested. Which EC50 did it give?
**A.** 0.902 µM

**Q.** For COc1ccc(C(=O)N2CC(C)(C)C2)cc1C(=O)Nc1c(C(=O)Nc2ccc(F)c(C(F)(F)F)c2)sc2cc(C(F)(F)F)ccc12 [Example 27, 3-(5-(3,3-dimethylazetidine-1-carbonyl)-2-methoxybenzamido)-N-(4-fluoro-3-(trifluoromethyl)phenyl)-6-(trifluoromethyl) benzo[b]thiophene-2-carboxamide], which EC50 is on record?
**A.** 1.72 µM

**Q.** With COc1ccc(C2CCCC(O)C2)cc1C(=O)Nc1c(C(=O)Nc2ccc(F)c(C(F)(F)F)c2)sc2cc(C(F)(F)F)ccc12 (single isomer, unassigned) [Example 32, N-(4-fluoro-3-(trifluoromethyl)phenyl)-3-(5-(3-hydroxycyclohexyl)-2-methoxybenzamido)-6-(trifluoromethyl)benzo[b]thiophene-2-carboxamide] as the compound, how does the EC50 read?
**A.** 0.718 µM

**Q.** For COc1ccc(-n2cc(C(C)(C)O)cn2)cc1C(=O)Nc1c(C(=O)Nc2ccc(F)c(C(F)(F)F)c2)sc2cc(C(F)(F)F)ccc12 [Example 3, N-(4-fluoro-3-(trifluoromethyl)phenyl)-3-(5-(4-(2-hydroxypropan-2-yl)-1H-pyrazol-1-yl)-2-methoxybenzamido)-6-(trifluoromethyl) benzo[b]thiophene-2-carboxamide], which EC50 is on record?
**A.** 0.35 µM

**Q.** COc1ncc(C(=O)NCC2(S(C)(=O)=O)CC2)cc1C(=O)Nc1c(C(=O)Nc2ccc(F)c(C(F)(F)F)c2)sc2cc(C(F)(F)F)ccc12 [Example 171, N3-(2-((4-fluoro-3-(trifluoromethyl)phenyl)carbamoyl)-6-(trifluoromethyl)benzo[b]thiophen-3-yl)-2-methoxy-N5-((1-(methylsulfonyl)cyclopropyl)methyl) pyridine-3,5-dicarboxamide] was tested. Which EC50 did it give?
**A.** 0.0091 µM

**Q.** COc1ccc(C2CCCN(CCS(C)(=O)=O)CC2)cc1C(=O)Nc1c(C(=O)Nc2ccc(F)c(C(F)(F)F)c2)sc2cc(C(F)(F)F)ccc12 (centres unmarked) [Example 71, N-(4-fluoro-3-(trifluoromethyl)phenyl)-3-(2-methoxy-5-(1-(2-(methylsulfonyl)ethyl)azepan-4-yl)benzamido)-6-(trifluoromethyl) benzo[b] thiophene-2-carboxamide] was tested. Which EC50 did it give?
**A.** 2.71 µM

**Q.** For COc1ccc(C2CCCN(C(=O)C3CCC3)C2)cc1C(=O)Nc1c(C(=O)Nc2ccc(F)c(C(F)(F)F)c2)sc2cc(C(F)(F)F)ccc12 (centres unmarked) [Example 98, 3-(5-(1-(cyclobutane-carbonyl)piperidin-3-yl)-2-methoxy-benzamido)-N-(4-fluoro-3-(trifluoromethyl)phenyl)-6-(trifluoromethyl) benzo[b] thiophene-2-carboxamide], which EC50 is on record?
**A.** 0.186 µM

**Q.** COc1ccc(C2CC2C(=O)N2CC(C(C)(C)O)C2)cc1C(=O)Nc1c(C(=O)Nc2ccc(F)c(C(F)(F)F)c2)sc2cc(C(F)(F)F)ccc12 (centres unmarked) [Example 169, N-[4-fluoro-3-(trifluoromethyl)phenyl]-3-(5-{2-[3-(2-hydroxypropan-2-yl)azetidine-1-carbonyl]cyclopropyl}-2-methoxy-benzamido)-6-(trifluoromethyl)-1-benzothiophene-2-carboxamide] was tested. Which EC50 did it give?
**A.** 2.25 µM

**Q.** Which EC50 does the source give for COc1ccc(CNC(c2ccc(F)c(-c3ccc(OC)c(C(=O)Nc4c(C(=O)Nc5ccc(F)c(C(F)(F)F)c5)sc5cc(C(F)(F)F)ccc45)c3)c2)C(F)(F)F)cc1OC (single isomer, unassigned) [Example 115, 3-(5′-(1-((3,4-dimethoxybenzyl)amino)-2,2,2-trifluoroethyl)-2′-fluoro-4-methoxy-[1,1′-biphenyl]-3-carboxamido)-N-(4-fluoro-3-(trifluoromethyl)phenyl)-6-(trifluoromethyl) benzo[b] thiophene-2-carboxamide] here?
**A.** 0.098 µM

**Q.** CNC(=O)CN1CCCC(c2ccc(OC)c(C(=O)Nc3c(C(=O)Nc4ccc(F)c(C(F)(F)F)c4)sc4cc(C(F)(F)F)ccc34)c2)C1 (centres unmarked) [Example 78, N-(4-fluoro-3-(trifluoromethyl)phenyl)-3-(2-methoxy-5-(1-(2-(methylamino)-2-oxoethyl)piperidin-3-yl)benzamido)-6-(trifluoromethyl) benzo[b] thiophene-2-carboxamide] was tested. Which EC50 did it give?
**A.** 0.835 µM

**Q.** For COc1ccc(C(=O)N2CC[C@@H](O)C2)cc1C(=O)Nc1c(C(=O)Nc2ccc(F)c(C(F)(F)F)c2)sc2cc(Cl)ncc12 [Example 199, (R)-6-chloro-N-(4-fluoro-3-(trifluoromethyl)phenyl)-3-(5-(3-hydroxypyrrolidine-1-carbonyl)-2-methoxy-benzamido) thieno[3,2-c]pyridine-2-carboxamide], which EC50 is on record?
**A.** 0.69 µM

**Q.** For COc1ccc(N2CCCC2=O)cc1C(=O)Nc1c(C(=O)Nc2ccc(F)c(C(F)(F)F)c2)sc2cc(C(F)(F)F)ccc12 [Example 290, N-[4-fluoro-3-(trifluoromethyl)phenyl]-3-[2-methoxy-5-(2-oxopyrrolidin-1-yl)benzamido]-6-(trifluoromethyl)-1-benzothiophene-2-carboxamide], which EC50 is on record?
**A.** 1.41 µM

**Q.** How did the EC50 turn out when COc1ccc(C2=NOC3CN(C(=O)CO)CC23)cc1C(=O)Nc1c(C(=O)Nc2ccc(F)c(C(F)(F)F)c2)sc2ccccc12 (single isomer, unassigned) [Example 248, N-[4-fluoro-3-(trifluoromethyl)phenyl]-3-{5-[5-(2-hydroxyacetyl) 3aH,4H,5H,6H, 6aH-pyrrolo[3,4-d][1,2]oxazol-3-yl]-2-methoxy-benzamido}-1-benzothiophene-2-carboxamide] was run?
**A.** 0.545 µM

**Q.** COc1ccc(C2CCCN(CC(N)=O)CC2)cc1C(=O)Nc1c(C(=O)Nc2ccc(F)c(C(F)(F)F)c2)sc2cc(C(F)(F)F)ccc12 (single isomer, unassigned) [Example 70, 3-(5-(1-(2-amino-2-oxoethyl)azepan-4-yl)-2-methoxy-benzamido)-N-(4-fluoro-3-(trifluoromethyl)phenyl)-6-(trifluoromethyl) benzo[b] thiophene-2-carboxamide] was tested. Which EC50 did it give?
**A.** 0.0468 µM

**Q.** For COc1ccc(-c2cnc(C3(O)CCS(=O)(=O)C3)nc2)cc1C(=O)Nc1c(C(=O)Nc2ccc(F)c(C(F)(F)F)c2)sc2cc(C(F)(F)F)ccc12 (single isomer, unassigned) [Example 23, N-(4-fluoro-3-(trifluoromethyl)phenyl)-3-(5-(2-(3-hydroxy-1,1-dioxidotetrahydrothiophen-3-yl)pyrimidin-5-yl)-2-methoxybenzamido)-6-(trifluoromethyl)benzo[b]thiophene-2-carboxamide], which EC50 is on record?
**A.** 3.1 µM

**Q.** With COc1ccc(-c2cc(C(NC(=O)C3CCOCC3)C(F)(F)F)ccc2F)cc1C(=O)Nc1c(C(=O)Nc2ccc(F)c(C(F)(F)F)c2)sc2cc(C(F)(F)F)ccc12 (single isomer, unassigned) [Example 20, N-(2,2,2-trifluoro-1-(6-fluoro-3′-((2-((4-fluoro-3-(trifluoromethyl)phenyl)carbamoyl)-6-(trifluoromethyl)benzo[b]thiophen-3-yl)carbamoyl)-4′-methoxy-[1,1′-biphenyl]-3-yl)ethyl)tetrahydro-2H-pyran-4-carboxamide] as the compound, how does the EC50 read?
**A.** 0.954 µM

**Q.** With COc1ccc(N2CCC3(C2)CN(C2COC2)C3)cc1C(=O)Nc1c(C(=O)Nc2ccc(F)c(C(F)(F)F)c2)sc2cc(C(F)(F)F)ccc12 [Example 208, N-(4-fluoro-3-(trifluoromethyl)phenyl)-3-(2-methoxy-5-(2-(oxetan-3-yl)-2,6-diazaspiro[3.4]octan-6-yl)benzamido)-6-(trifluoromethyl) benzo[b] thiophene-2-carboxamide] as the compound, how does the EC50 read?
**A.** 1.48 µM
